These results are taken from patent US20220274983A1, “JAK KINASE INHIBITOR AND USE THEREOF” (JIANGSU CAREPHAR PHARMACEUTICAL CO., LTD., priority 2019, published 2022).

One series concerns the target JAK1 (Homo sapiens, UniProt P23458). In words: JAK kinase inhibitory activity, HTRF biochemical assay. The protocol:
(§1) The compounds of the above embodiments were applied to the detection and screening of JAK kinase inhibitory activity.
(§2) A corresponding volume of DMSO was added to each well of a first 96-well plate. 20-30 μL of 100-200 μM stock solution of different test compounds were added to each well. The mixture was shaken and mixed for 3 min. All of the compounds were subjected to 3× serial dilution. 60-80 μL Kinase buffer was added to each well of a second 96-well plate, and 1-2 μL of the solution taken from each well of the first 96-well plate was added to the corresponding well of the second 96-well plate. The mixture was shaken and mixed for 3 min. 5 μL of compound dilution taken from each well of the second compound dilution plate was transferred to the corresponding well of a 384-well test plate. 1-2 μL TK Substrate-biotin was added to each well of the test plate. 1-2 μL of enzyme mixture was added to each well. At the same time, a blank well without enzyme was set. 1-2 μL of ATP solution was added to each well, the plate was sealed and reacted at room temperature. The reaction time was as follows: JAK1: 2 h, JAK2: 30 min, JAK3: 30 min, and TYK2: 50 min. 3-5 μL of Streptavidin-XL665 and 3-5 μL of TK Antibody-cryptate were added to each well, the plate was sealed and allowed to stand at room temperature for 30 min to complete the reaction.
(§3) The percentage of inhibition was calculated based on the following formula:
(§4) Inhibition %=[(Ratiomax−Ratiocompound)/(Ratiomax−Ratiomin)]×100%
(§5) Ratiocompound is the HTRF ratio at a given compound concentration, Ratiomin is the HTRF ratio added to the blank well, and Ratiomax is the HTRF ratio without adding the compound. GraphPad Prism 5.0 software was used to plot a sigmoid dose-inhibition rate curve with a non-linear regression model and calculate the IC50 value.

The next series concerns the target JAK2 (Homo sapiens, UniProt O60674). The series is described as above. The protocol: as §1, §2, §3, §4, §5
Series [1] concerns rat CIA model. In words: Arthritis index (AI) of extremities in rat CIA model.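 Note: rats immunized with type II collagen plus complete Freund's adjuvant on day 0, boosted day 7, groups of 8, each paw graded 0-4 for swelling or redness, higher means worse.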 Particulars: CIA rats, 2 mg/kg oral gavage once daily for 2 w, score 0-16.
Description: (§9) Lewis rats (female, 10-12 weeks old) were obtained from Beijing Vital River Laboratory Animal Technology Co., Ltd. The rats were on a light and dark alternation for 12 h, and the environment was kept at a temperature of 23±2° C. and a humidity of 40-70%.
(§10) Type II collagen solution (2 mg/mL) was prepared with 0.05 M acetic acid solution to allow to be fully dissolved, and placed overnight in the dark at 4° C. During the test, 2 mg/mL type II collagen (C II) solution and 4 mg/mL complete Freund's adjuvant (CFA) solution were mixed in equal volumes under ice bath conditions to fully emulsify. On day 0, an emulsion prepared by mixing equal volumes of C II (2 mg/mL) and CFA (4 mg/mL) was injected intracutaneously into the base of the tail of experimental rats for primary immunization, and on day 7, secondary booster immunization was performed.
(§11) The therapeutic effect of the test compound was tested in a rat CIA model. The rats were randomly divided into groups with 8 animals in each group. All animals were immunized on day 0 and boosted on day 7.
Foot volume was scored for the swelling of four toes at the same time, the score for each foot was 0-4, and the highest score for each rat was 16. 0—no swelling, normal appearance; 1—mild swelling or redness of the ankle joint, wrist joint or finger joint; 2—moderate swelling or redness of the ankle joint, wrist joint or finger joint; 3—severe swelling or redness of the ankle joint, wrist joint or finger joint; 4—very severe swelling or redness of the ankle joint, wrist joint or finger joint.
Another series is described as follows: Body weight of CIA rats. The note with it: 2 mg/kg oral gavage once daily for 2 w.
The subject of series [2] is rat CIA model. The series can be described thus: Hindfoot foot volume in rat CIA model. In kind it is in vivo, Lewis rats. The note with it: CIA rats, hindfoot, 2 mg/kg oral gavage once daily for 2 w.
Description: as §9, §10, §11
(§12) Therefore, the differences in body weight and foot volume after the onset of arthritis compared with the negative group, respectively, can be used to evaluate the therapeutic effect in the rat model. The experimental data were expressed as Mean±SEM; the data between the two groups was tested by unpaired t-test and p<0.05 was considered as a significant difference.
Another series concerns THP1 cells. In words: Proliferation inhibition based on THP1 cells (IL-4 stimulation, CTG). In kind it is cell-based. Particulars: Homo sapiens, THP-1, read-out: IC50 (uM), proliferation inhibitory activity on THP1 cells. The protocol:
1. Cell plating: cultured cells were collected and counted for viable cells with Vi-Cell XR cell counter. The cell suspension was adjusted to an appropriate concentration with the medium and then added to a 96-well cell culture plate. 80 μL of the cell suspension was added to each well of the 96-well cell culture plate. The cell plating density depended on the growth rate of the cells. The cells were cultured in corresponding incubators.
(§6) 2. Drug treatment and IL-4 stimulation: firstly, a series of test compound concentration (work solution-1) was prepared using DMSO with 3× gradient dilution, and then it was subjected to fold dilution with RPMI1640+10% FBS to obtain a work solution-2; Cisplatin's work solution-2 was prepared with RPMI1640+10% FBS, and then 1-10 μL solution taken from the work solution-2 was added to the prepared cell wells containing medium. The cells were cultured in the corresponding incubators. After incubation, 1-10 μL of IL-4 medium was added to each well and continued to culture. An appropriate CTG solution was added to each well.
Cell Survial Rate Calculation
(§7) T is the luminescence reading of a drug treatment group, and C is the average luminescence reading of a solvent control group.

For the next series, the system named is BaF3 cells. In words: Proliferation inhibition based on BaF3 cells (IL-3 medium, CTG). It is filed as cell-based. Particulars: Mus musculus, medium containing IL-3, read-out: IC50 (uM), proliferation inhibitory activity on BaF3 cells. The protocol:
1. Cell plating: cultured cells were collected with RPMI1640+10% FBS (containing IL-3) medium and counted for viable cells with Vi-Cell XR cell counter. The cell suspension was adjusted to an appropriate concentration with RPMI1640+10% FBS (containing IL-3) medium and then added to a 96-well cell culture plate. A certain amount of cell suspension was added to each well of the 96-well cell culture plate. The cells were cultured in corresponding incubators.
2. Drug treatment: a series of test compound concentration (work solution-1) was prepared using DMSO with 3× gradient dilution, and then it was subjected to fold dilution with RPMI1640+10% FBS (containing IL-3) to obtain a work solution-2; Cisplatin's work solution-2 was prepared with RPMI1640+10% FBS (containing IL-3), and then 1-10 μL solution taken from the work solution-2 was added to the prepared cell wells containing medium. The cells were cultured in the corresponding incubators. An appropriate CTG solution was added to each well.
(§8) Cell Survival Rate Calculation
as §7

The next series concerns Hela cells. In words: Proliferation inhibition based on Hela cells (OSM stimulation, CTG). The note with it: Homo sapiens, OSM stimulation, read-out: IC50 (uM), proliferation inhibitory activity on Hela cells. In kind it is cell-based. The protocol:
1. Cell plating: cultured cells were collected and counted for viable cells with Vi-Cell XR cell counter. The cell suspension was adjusted to an appropriate concentration with the medium and then added to a 96-well cell culture plate. 50 μL-100 μL of the cell suspension was added to each well of the 96-well cell culture plate. The cell plating density depended on the growth rate of the cells. The cells were cultured in corresponding incubators.
2. Drug Treatment and OSM Stimulation
as §6, with “Firstly,” for “2. Drug treatment and IL-4 stimulation: firstly,”, “medium.” for “medium. The cells were cultured in the corresponding incubators.”, “OSM” for “IL-4”, “well. The mixture was shaken and mixed for 1-5 min and then a luminescence signal was determined with an Envision2104 plate reader.” for “well.”
as §8, §7

Sequence of JAK1 (P23458 whole entry, species assumed): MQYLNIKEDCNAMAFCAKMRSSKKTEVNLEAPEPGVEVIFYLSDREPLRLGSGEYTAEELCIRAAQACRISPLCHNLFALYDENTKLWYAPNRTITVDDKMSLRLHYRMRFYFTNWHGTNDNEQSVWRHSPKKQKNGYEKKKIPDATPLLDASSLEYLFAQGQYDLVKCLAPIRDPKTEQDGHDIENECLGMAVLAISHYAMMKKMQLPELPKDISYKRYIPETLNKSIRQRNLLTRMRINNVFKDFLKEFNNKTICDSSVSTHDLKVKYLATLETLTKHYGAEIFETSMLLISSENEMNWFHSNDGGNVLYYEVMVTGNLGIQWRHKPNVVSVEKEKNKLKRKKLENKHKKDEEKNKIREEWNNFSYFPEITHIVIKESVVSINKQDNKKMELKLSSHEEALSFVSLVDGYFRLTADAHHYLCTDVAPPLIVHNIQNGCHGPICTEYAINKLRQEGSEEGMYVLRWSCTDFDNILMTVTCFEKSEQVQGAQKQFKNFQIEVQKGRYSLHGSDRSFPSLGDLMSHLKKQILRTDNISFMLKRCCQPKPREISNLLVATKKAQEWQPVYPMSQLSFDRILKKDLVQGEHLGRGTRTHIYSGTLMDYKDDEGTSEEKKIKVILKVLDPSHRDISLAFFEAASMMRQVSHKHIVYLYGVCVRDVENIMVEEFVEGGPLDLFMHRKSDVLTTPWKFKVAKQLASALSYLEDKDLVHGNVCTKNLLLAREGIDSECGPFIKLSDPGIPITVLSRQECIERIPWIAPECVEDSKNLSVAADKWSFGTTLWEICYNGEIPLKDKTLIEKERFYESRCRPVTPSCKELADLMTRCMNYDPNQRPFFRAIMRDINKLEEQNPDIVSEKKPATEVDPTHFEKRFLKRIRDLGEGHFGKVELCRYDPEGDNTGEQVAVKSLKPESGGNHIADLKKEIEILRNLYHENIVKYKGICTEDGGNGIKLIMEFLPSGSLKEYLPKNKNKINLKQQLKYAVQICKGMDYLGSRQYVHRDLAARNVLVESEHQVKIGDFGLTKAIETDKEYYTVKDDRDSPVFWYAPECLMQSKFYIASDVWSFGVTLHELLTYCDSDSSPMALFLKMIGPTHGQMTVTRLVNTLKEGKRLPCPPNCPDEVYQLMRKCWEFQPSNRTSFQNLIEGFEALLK
Sequence of JAK2 (O60674 whole entry, species assumed): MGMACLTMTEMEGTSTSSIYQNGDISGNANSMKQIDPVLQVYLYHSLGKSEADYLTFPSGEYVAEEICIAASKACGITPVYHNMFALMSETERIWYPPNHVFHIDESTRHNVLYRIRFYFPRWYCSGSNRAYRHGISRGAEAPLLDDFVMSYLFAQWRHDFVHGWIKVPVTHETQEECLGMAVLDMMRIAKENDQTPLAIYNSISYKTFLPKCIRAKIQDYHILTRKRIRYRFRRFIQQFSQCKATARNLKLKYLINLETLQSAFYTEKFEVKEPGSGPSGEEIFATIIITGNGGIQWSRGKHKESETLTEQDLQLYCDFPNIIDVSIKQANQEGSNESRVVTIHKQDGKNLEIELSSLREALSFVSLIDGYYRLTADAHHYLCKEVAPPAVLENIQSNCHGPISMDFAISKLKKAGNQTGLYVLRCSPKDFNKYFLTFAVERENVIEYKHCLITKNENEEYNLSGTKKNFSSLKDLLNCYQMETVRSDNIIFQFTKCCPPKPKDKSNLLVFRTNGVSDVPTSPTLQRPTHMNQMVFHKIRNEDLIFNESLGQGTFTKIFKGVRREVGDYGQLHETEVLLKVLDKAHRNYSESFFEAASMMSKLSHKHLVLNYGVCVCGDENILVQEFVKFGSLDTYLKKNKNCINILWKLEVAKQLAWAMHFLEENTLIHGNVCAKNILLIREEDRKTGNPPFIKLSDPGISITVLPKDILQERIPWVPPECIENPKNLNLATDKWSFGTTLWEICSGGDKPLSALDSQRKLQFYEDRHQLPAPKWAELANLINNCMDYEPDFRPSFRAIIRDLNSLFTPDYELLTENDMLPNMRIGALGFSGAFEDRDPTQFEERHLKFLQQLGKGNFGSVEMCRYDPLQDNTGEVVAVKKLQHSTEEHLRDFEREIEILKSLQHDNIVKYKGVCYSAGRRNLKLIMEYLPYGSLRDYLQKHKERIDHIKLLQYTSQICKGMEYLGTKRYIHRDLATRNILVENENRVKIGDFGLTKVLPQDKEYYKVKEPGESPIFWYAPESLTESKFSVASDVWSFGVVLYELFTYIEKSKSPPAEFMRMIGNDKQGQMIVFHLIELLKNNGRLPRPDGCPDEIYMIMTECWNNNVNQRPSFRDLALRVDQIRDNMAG
Description for Body weight of CIA rats: as §9, §10, §11, §12

Regarding `O=C(Nc1nc2cccc(-c3nnc(CN4CCS(=O)(=O)CC4)o3)n2n1)C1CC1` [EXP-15, N-[5-[5-[(1,1-dioxo-1,4-thiazin-4-)methyl]-1,3,4-oxadiazole-2-]-[1,2,4]triazolo[1,5-a]pyridine-2-]cyclopropylcarboxamide], the IC50 against JAK1 was > 500 nM.
Turning to `CC1(C(=O)Nc2nc3cccc(-c4ccc(CN5CCS(=O)(=O)CC5)s4)n3n2)CC1(F)F` (centres unmarked) [EXP-7], the IC50 against JAK1 and against JAK2 was > 500 nM in each case.
Turning to `O=C(Nc1nc2cccc(-c3ccc(CN4CCS(=O)(=O)CC4)s3)n2n1)[C@@H]1C[C@H]1C(F)(F)F` [EXP-9], the IC50 against JAK1 and against JAK2 was 50 to 500 nM throughout.
Regarding `O=C(NCCc1nccs1)c1ccc(-c2cccc3nc(NC(=O)C4CC4)nn23)s1` [EXP-17, 5-[2-[2-thiazole-2-ethyl]carboxamido]-thiophene-[1,2,4]triazolo[1,5-a]pyridine-2-cyclopropanecarboxamide], the IC50 against JAK1 is > 500 nM.
`O=C(Nc1nc2cccc(-c3ccc(CN4CCC(C(F)(F)F)CC4)s3)n2n1)[C@H]1C[C@@H]1F` [EXP-11]: the IC50 against JAK1 and against JAK2 was 50 to 500 nM in each case.
Take `O=C(Nc1nc2cccc(-c3ccc(COCCc4cn[nH]c4)s3)n2n1)C1CC1` [EXP-16, N-[5-[5-[2-(1H-pyrazol-4-yl)-ethoxymethyl]-2-thienyl]-[1,2,4]triazolo[1,5-a]pyridin-2-yl]cylopropanecarboxamide]: the IC50 against JAK1 was > 500 nM.
Turning to `O=C(Nc1nc2cccc(-c3ccc(CN4CCS(=O)(=O)CC4)s3)n2n1)[C@H]1C[C@H]1C(F)(F)F` [EXP-8], the IC50 against JAK1 and against JAK2 was > 500 nM each time.
In the case of `O=C(NCCc1nccs1)c1cc(-c2cccc3nc(NC(=O)C4CC4)nn23)cs1` [EXP-18], the IC50 against JAK1 and at JAK2 was 50 to 500 nM each time.
In the case of `O=C(Nc1nc2cccc(-c3ccc(CN4CCC(F)(F)CC4)s3)n2n1)[C@H]1C[C@@H]1F` (relative stereo) [EXP-12, trans-N-[5-[5-[(4,4-difluoro-1-piperidinyl)methyl]-2-thienyl]-[1,2,4]triazolo[1,5-a]pyridin-2-yl]-2-fluorocyclopropanecarboxamide], the IC50 on JAK1 is 50 to 500 nM.
`CC[C@@H]1CN(C(=O)NCC(F)(F)F)C[C@@H]1c1cnc2cnc3[nH]ccc3n12` [Upadacitinib, upadacitinib, reference compound]: the “Arthritis index/Day” value is recorded as 0 ± 0 in the series on rat CIA model [1] (day 0); 0 ± 0 in the series on rat CIA model [1] (day 8); 0.63 ± 0.38 in the series with rat CIA model [1] (day 11); 3.50 ± 0.73 in the series on rat CIA model [1] (day 14); 5.50 ± 1.00 with rat CIA model [1] (day 17); 9.00 ± 1.07 in the series on rat CIA model [1] (day 21). For the same molecule, the “Arthritis index/Day” value in the series with rat CIA model [1] (day 24) was found to be 9.38 ± 0.71. The “Body weight (g)/Day” value in the series “Body weight of CIA rats” (day 0) is listed as 172.3 ± 1.8 g; in “Body weight of CIA rats” (day 8), 170.4 ± 2.1 g; in the series “Body weight of CIA rats” (day 11), 169.4 ± 2.8 g; in the series “Body weight of CIA rats” (day 14), 170 ± 2.2 g; in the series “Body weight of CIA rats” (day 17) it was 170.8 ± 3.3 g; in the series “Body weight of CIA rats” (day 21), 168.6 ± 2.9 g. Further, the “Body weight (g)/Day” value in “Body weight of CIA rats” (day 24) was 165.9 ± 2.9 g; in “Body weight of CIA rats” (day 28), 170.5 ± 3.1 g. For the same molecule, the “Foot volume (ml)/Day” value in the series with rat CIA model [2] (day 0) amounted to 2.611 ± 0.022 mL; in the series on rat CIA model [2] (day 8) it was 2.599 ± 0.020 mL; in the series on rat CIA model [2] (day 11), 2.738 ± 0.110 mL; with rat CIA model [2] (day 14) it was 3.675 ± 0.314 mL; with rat CIA model [2] (day 17), 4.126 ± 0.301 mL; in the series on rat CIA model [2] (day 21), 4.591 mL. For the same molecule, the “Foot volume (ml)/Day” value was determined as 4.403 mL in the series on rat CIA model [2] (day 24) and 3.990 mL with rat CIA model [2] (day 28).
For `Cc1cc(-c2cccc3nc(NC(=O)C4CC4)nn23)sc1CN1CCC(F)(F)CC1` [EXP-13], the IC50 against JAK1 and at JAK2 was 30 to 50 nM in each case.
As to `O=C(Nc1nc2cccc(-c3ccc(CN4CCC(OC(F)(F)F)CC4)s3)n2n1)[C@H]1C[C@@H]1F` (relative stereo) [EXP-19], the IC50 at JAK1 was > 500 nM.
As for `O=C(Nc1nc2cccc(-c3ccc(CN4CCS(=O)(=O)CC4)s3)n2n1)C1(F)CC1` [EXP-10], the IC50 against JAK1 is > 500 nM.
`O=C(Nc1nc2cccc(-c3nnc(CN4CCS(=O)(=O)CC4)s3)n2n1)C1CC1` [EXP-14, N-[5-[5-[(1,1-dioxo-1,4-thiazin-4-)methyl]-1,3,4-thiadiazol-2-]-[1,2,4]triazolo[1,5-a]pyridine-2-]cyclopropylcarboxamide]: the IC50 against JAK1 and at JAK2 was > 500 nM in each case.
In the case of `O=C(Nc1nc2cccc(-c3cnc(CN4CCS(=O)(=O)CC4)s3)n2n1)C1CC1` [EXP-4, N-[5-[2-[(1,1-dioxo-1,4-thiazine-4-)methyl]thiazol-5-]-[1,2,4]triazolo[1,5-a]pyridine-2-]cyclopropylcarboxamide], the IC50 was 5 to 30 µM with THP1 cells, 5 to 30 µM in the series on BaF3 cells, > 500 nM on JAK1 and 5 to 30 µM with Hela cells.
